Blank lines part the entries; values can stand above or below the compound they belong to.
What was measured:
Assay type in all cases: biochemical
fructosamine oxidase [1] = assay: Fructosamine oxidase inhibitor assay (ferricytochrome c reduction) in human blood plasma; set-up: velocity constant (K), fraction of the enzyme inhibited in a given period of time: dose or concentration left out as unconfirmed; settings: human plasma sample; for IC50: read-out: IC50, concentration of inhibitor causing 50% inactivation of the enzyme
Experimental: (§1) The reagent is 50 mM TES buffer pH 7.4 containing 10 μM cytochrome c (Sigma), and […] 50 μM fructosamine as glycated bovine serum albumin.
(§2) One unit of enzyme was defined as the amount which reduced 1 μmol/minute of cytochrome c in solution under the above assay conditions. The calculation factor is determined from the molar absorptivity for ferrocytochrome c (E550nm) according to the formula: U/L(μmol.min^−1.L^−1)=TV×10^3/ε550nm×SV where • TV=total reaction volume • SV=sample volume (iv) Materials
An important application of the current activity assay is as a means to identify potential fructosamine oxidase antagonists and inhibitors. Fructosamine oxidase inhibitors may be hydrazine compounds which bind and block the quinone co-factor, copper chelators which bind and block the copper co-factor, or substrate analogues which mimic the normal substrate of the enzyme. […]
The effectiveness of an enzyme inhibitor is usually expressed by a velocity constant (K) which determines the fraction of the enzyme inhibited in a given period of time by a certain concentration of inhibitor. The specificity of the inhibitor for the active center of the enzyme is indicated by the concentration of inhibitor causing 50% inactivation of the enzyme (IC50). […].

fructosamine oxidase [2] = assay: Specificity of the fructosamine oxidase assay for reactive oxygen species, free radical scavengers added to the reagent; settings: free radical scavenger added to the reagent (superoxide dismutase 20 kU/L, catalase 1000 kU/L, mannitol 50 mmol/L); control 15.34 ± 0.16
Experimental: as §1, §2
The specificity of the assay for reactive oxygen species was tested by measuring degree of inhibition of ferricytochrome c reduction after adding the following oxygen free radical scavengers to the reaction mixture: (a) Superoxide dismutase to selectively remove superoxide; (b) catalase to selectively remove hydrogen peroxide; & (iii) mannitol to scavenge hydroxyl radicals.

[3] = system: Human fructosamine oxidase; assay: Interference of additives/anticoagulants in the fructosamine oxidase assay; settings: additive in the reagent (Heparin 1000 U/L, EDTA 100 μM); control 100
Experimental: as §1, §2
Cytochrome c is a non-specific reductant and other reducing substances in sera or anticoagulants added to the blood sample at specimen collection may interfere in the assay as shown in Table 4.

velocity constant (K), fraction of the enzyme inhibited in a given period of time (fructosamine oxidase [1]): 15 % per minute
IC50 (fructosamine oxidase [1]): 500 nM
Compound: C[C@@](Cc1ccc(O)c(O)c1)(NN)C(=O)O [carbidopa]

Compound: superoxide dismutase
Enzyme activity (fructosamine oxidase [2]): 9.99 ± 0.03 U/L

Activity compared with control [3]: 26.3%
Compound: O=C(O)CN(CCN(CC(=O)O)CC(=O)O)CC(=O)O [EDTA, ethylenediamine tetraacetic acid]

Compound: catalase
Enzyme activity (fructosamine oxidase [2]): 12.23 ± 0.03 U/L

Compound: OC[C@@H](O)[C@@H](O)[C@H](O)[C@H](O)CO [mannitol]
Enzyme activity (fructosamine oxidase [2]): 14.96 ± 0.19 U/L

Compound: C[C@H](CS)C(=O)N1CCC[C@H]1C(=O)O [captopril]
velocity constant (K), fraction of the enzyme inhibited in a given period of time (fructosamine oxidase [1]): 2.6 % per minute
IC50 (fructosamine oxidase [1]): 830 nM

Activity compared with control [3]: 24.4%
Compound: Heparin
